Experimental data taken from US6514998B1 (priority 1994, dated 2003).

How the values were obtained:
Pyricularia oryzae = format: in vivo; settings: application rate 250 ppm; rice seedlings (Tai Nong 67) sprayed 24 h before infection; 6 days; untreated plants 70% attack
Fusarium culmorum = test: Activity against Fusarium culmorum on wheat seedlings; format: in vivo; settings: application rate 500 ppm; wheat seedlings (Kanzler) sprayed one day before infection; 6 days; untreated plants 60% attack
Protocol: On the following day, the plants were infected with a spore suspension of Fusarium culmorum. The plants treated in this way were incubated for 6 days at 22-24° C. and a relative atmospheric humidity of >90%. Assessment was carried out visually.

Botrytis cinerea = settings: application rate 500 ppm; paprika seedlings (Neusiedler Ideal Elite) sprayed before infection; 5 days; untreated plants 80% attack

COC(=O)N(OC)c1ccccc1COc1ncn(-c2ccccc2)n1 [Compound 2]
attack (visual assessment) (Pyricularia oryzae): 3%
attack (visual assessment) (Fusarium culmorum): 5%
attack (visual assessment) (Botrytis cinerea): 5%
